The values that follow come from patent publication US5574043A, “Certain [1,2,5-thiadiazol-4-yl]-1-azabicyclo [3.2.1]octane derivatives and their pharmaceutical uses” (Novo Nordisk A/S, priority 1995, dated 1996).

Counter-ions that a name gives are not always drawn.

The target in one series is muscarinic acetylcholine receptors. As to the kind of experiment: Inhibition of specific binding of 3H-Oxotremorine-M (OXO BINDING) in vitro, rat cortex. The settings on record: rat cortex homogenate, 3H-Oxotremorine 1.0 nM, 30 min at 25° C., pH 7.4. Also noted: species or system male Wistar rats. The method, boiled down: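 Washed male Wistar rat cortex membranes in 20 mM Hepes pH 7.4 incubated 30 min at 25° C with 1.0 nM ³H-Oxotremorine-M (final) and test compound; nonspecific binding with 1 μg/ml arecoline. Filtration and scintillation counting; IC50 (ng/ml) for specific binding calculated assuming mass-action kinetics.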
Turning to `CC(C)CCOc1nsnc1C1CN2CCC1CC2.O=C(O)C(=O)O` (centres unmarked) [Compound 51, 3-(3-Isopentyloxy-1,2,5-thiadiazol-4-yl)-1-azabicyclo[2.2.2]octane oxalate], the “Inhibition in vitro OXO BINDING IC50” value was found to be 0.89 ng/mL.

Turning to `CCSc1nsnc1C1CN2CCC1CC2.O=C(O)C(=O)O` (centres unmarked) [Compound 52, 3-(3-Ethylthio-1,2,5-thiadiazol-4-yl)-1-azabicyclo[2.2.2]octane oxalate], the “Inhibition in vitro OXO BINDING IC50” value came to 0.61 ng/mL.

With `CCCSc1nsnc1C1CN2CCC1CC2.O=C(O)C(=O)O` (centres unmarked) [Compound 53, 3-(3-Propylthio-1,2,5-thiadiazol-4-yl)-1-azabicyclo[2.2.2]octane oxalate], the “Inhibition in vitro OXO BINDING IC50” value came out at 0.3 ng/mL.

In the case of `CCCCCCCSc1nsnc1C1CN2CCC1CC2.O=C(O)/C=C/C(=O)O` (centres unmarked) [Compound 54, 3-(3-Heptylthio-1,2,5-thiadiazol-4-yl)-1-azabicyclo[2.2.2]octane fumarate], the “Inhibition in vitro OXO BINDING IC50” value was 3.1 ng/mL.

With `CCCOc1nsnc1C1=C(Cl)C2CCCN(C1)C2` (centres unmarked) [Compound 62, 4-Chloro-3-(3-propyloxy-1,2,5-thiadiazol-4-yl)-1-azabicyclo[3.3.1]non-3-eneoxalate], the “Inhibition in vitro OXO BINDING IC50” value worked out at 1.9 ng/mL.

Take `CCCCCOc1nsnc1C1=C(Cl)C2CCCN(C1)C2` (centres unmarked) [Compound 63, 4-Chloro-3-(3-pentyloxy-1,2,5-thiadiazol-4-yl)-1-azabicyclo[3.3.1]non-3-eneoxalate]: the “Inhibition in vitro OXO BINDING IC50” value was found to be 8.2 ng/mL.

As to `COc1nsnc1C1=C(Cl)C2CCCN(C1)C2.O=C(O)C(=O)O` (centres unmarked) [Compound 64, 4-Chloro-3-(3-methoxy-1,2,5-thiadiazol-4-yl)-1-azabicyclo[3.3.1]non-3-ene oxalate], the “Inhibition in vitro OXO BINDING IC50” value was 8.2 ng/mL.

As for `ClC1=C(c2cnsn2)CN2CCCC1C2.O=C(O)C(=O)O` (centres unmarked) [Compound 65, 4-Chloro-3-(1,2,5-thiadiazol-4-yl)-1-azabicyclo[3.3.1]non-3-ene oxalate], the “Inhibition in vitro OXO BINDING IC50” value turned out to be 9.6 ng/mL.

For the compound `Clc1nsnc1C12CCCN(CC1)C2.O=C(O)C(=O)O` (centres unmarked) [Compound 67, 5-(3-Chloro-1,2,5-thiadiazol-4-yl)-1-azabicyclo[3.2.1]octane oxalate], the “Inhibition in vitro OXO BINDING IC50” value stood at 0.43 ng/mL.

As for `CCCCCCSc1nsnc1C12CCCN(CC1)C2.O=C(O)C(=O)O` (centres unmarked) [Compound 68, 5-(3-Hexylthio-1,2,5-thiadiazol-4-yl)-1-azabicyclo[3.2.1]octane oxalate], the “Inhibition in vitro OXO BINDING IC50” value turned out to be 0.69 ng/mL.

Consider `CCCCOc1nsnc1C1=C(Cl)C2CCCN(C1)C2.O=C(O)C(=O)O` (centres unmarked) [Compound 93, 4-Chloro-3-(3-butoxy-1,2,5-thiadiazol-4-yl)-1-azabicyclo[3.3.1]non-3-ene oxalate], for which the “Inhibition in vitro OXO BINDING IC50” value was 9.0 ng/mL.

With `CCCCCCOc1nsnc1C1=C(Cl)C2CCCN(C1)C2.Cl` (centres unmarked) [Compound 94, 4-Chloro-3-(3-hexyloxy-1,2,5-thiadiazol-4-yl)-1-azabicyclo[3.3.1]non-3-ene hydrochloride], the “Inhibition in vitro OXO BINDING IC50” value worked out at 12 ng/mL.

In the case of `CCCCOc1nsnc1C1=CC2CCCN(C1)C2.O=C(O)C(=O)O` (centres unmarked) [Compound 95, 3-(3-Butoxy-1,2,5-thiadiazol-4-yl)-1-azabicyclo[3.3.1]non-3-ene oxalate], the “Inhibition in vitro OXO BINDING IC50” value worked out at 1.7 ng/mL.

In the case of `COc1nsnc1C1=CC2CCCN(C1)C2.O=C(O)C(=O)O` (centres unmarked) [Compound 96, 3-(3-Methoxy-1,2,5-thiadiazol-4-yl)-1-azabicyclo[3.3.1]non-3-ene oxalate], the “Inhibition in vitro OXO BINDING IC50” value came to 0.3 ng/mL.

For the compound `CCCCCCOc1nsnc1C1=CC2CCCN(C1)C2.O=C(O)C(=O)O` (centres unmarked) [Compound 98, 3-(3-Hexyloxy-1,2,5-thiadiazol-4-yl)-1-azabicyclo[3.3.1]non-3-ene oxalate], the “Inhibition in vitro OXO BINDING IC50” value was 1.0 ng/mL.

As to `CCC(C)Sc1nsnc1C1CN2CCC1CC2.O=C(O)/C=C/C(=O)O` (centres unmarked) [Compound 100, 3-(3-(1-Methylpropylthio)-1,2,5-thiadiazol-4-yl)-1-azabicyclo[2.2.2]octane fumarate], the “Inhibition in vitro OXO BINDING IC50” value is 0.82 ng/mL.

`CC(C)CSc1nsnc1C1CN2CCC1CC2.O=C(O)/C=C/C(=O)O` (centres unmarked) [Compound 101, 3-(3-Isobutylthio-1,2,5-thiadiazol-4-yl)-1-azabicyclo[2.2.2]octane fumarate]: the “Inhibition in vitro OXO BINDING IC50” value is 0.75 ng/mL.

With `O=C(O)/C=C/C(=O)O.c1ccc(OCCSc2nsnc2C2CN3CCC2CC3)cc1` (centres unmarked) [Compound 102, 3-(3-(2-Phenoxyethylthio)-1,2,5-thiadiazol-4-yl)-1-azabicyclo[2.2.2]octane fumarate], the “Inhibition in vitro OXO BINDING IC50” value came to 1.52 ng/mL.

As to `N#CCSc1nsnc1C1CN2CCC1CC2.O=C(O)C(=O)O` (centres unmarked) [Compound 103, 3-(3-Cyanomethylthio-1,2,5-thiadiazol-4-yl)-1-azabicyclo[2.2.2]octane oxalate], the “Inhibition in vitro OXO BINDING IC50” value turned out to be 0.92 ng/mL.

Take `c1csc(CCCSc2nsnc2C2CN3CCC2CC3)c1` (centres unmarked) [Compound 104, 3-(3-(3-(2-Thienyl)propylthio)-1,2,5-thiadiazol-4-yl)-1-azabicyclo[2.2.2]fumarate]: the “Inhibition in vitro OXO BINDING IC50” value was found to be 0.85 ng/mL.

For `Cn1nnnc1SCCCCSc1nsnc1C1CN2CCC1CC2` (centres unmarked) [Compound 106, oxalate], the “Inhibition in vitro OXO BINDING IC50” value turned out to be 0.9 ng/mL.

As to `Cc1nnc(SCCCCSc2nsnc2C2CN3CCC2CC3)s1` (centres unmarked) [Compound 107, oxalate], the “Inhibition in vitro OXO BINDING IC50” value stood at 0.3 ng/mL.

As for `c1ccc2sc(SCCCCSc3nsnc3C3CN4CCC3CC4)nc2c1` (centres unmarked) [Compound 108, 3-(3-(4-(2-Benzothiazolyl)thio)butylthio-1,2,5-thiadiazol-4-yl)-1-azabicyclo[2.2.2]octane oxalate], the “Inhibition in vitro OXO BINDING IC50” value came out at 16 ng/mL.

For `CCc1ccc(COc2nsnc2C2CN3CCC2CC3)cc1.O=C(O)C(=O)O` (centres unmarked) [Compound 109, 3-(3-(4-Ethylbenzyloxy)-1,2,5-thiadiazol-4-yl)-1-azabicyclo[2.2.2]octane oxalate], the “Inhibition in vitro OXO BINDING IC50” value worked out at 4.0 ng/mL.

On to `O=C(O)/C=C/C(=O)O.c1csc(CCCOc2nsnc2C2CN3CCC2CC3)c1` (centres unmarked) [Compound 110, 3-(3-(3-(2-Thienyl)propoxy)-1,2,5-thiadiazol-4-yl)-1-azabicyclo[2.2.2]octane fumarate], for which the “Inhibition in vitro OXO BINDING IC50” value worked out at 1.1 ng/mL.

Turning to `CSc1nsnc1C1CN2CCC1CC2.O=C(O)C(=O)O` (centres unmarked) [Compound 131, 3-(3-Methylthio-1,2,5-thiadiazol-4-yl)-1-azabicyclo[2.2.2]octane oxalate], the “Inhibition in vitro OXO BINDING IC50” value stood at 0.96 ng/mL.

As to `O=C(O)/C=C/C(=O)O.c1nsnc1C1CN2CCC1CC2` (centres unmarked) [Compound 132, 3-(1,2,5-Thiadiazol-3-yl)-1-azabicyclo[2.2.2]octane fumarate], the “Inhibition in vitro OXO BINDING IC50” value stood at 0.96 ng/mL.

System in another series: not given
Assay: not given
The settings on record: in vivo; cited from earlier work.
Regarding `COC(=O)C1=CCCN(C)C1` [Arecoline, methyl 1-methyl-1,2,5,6-tetrahydropyridine-3carboxylate], the biological half life result was “very short”.

The next series has as its system central and peripheral muscarinic effects.
Assay: not given
Conditions: cited from earlier work.
For `COC(=O)C1=CCCN(C)C1` [Arecoline, methyl 1-methyl-1,2,5,6-tetrahydropyridine-3carboxylate], the “separation between central and peripheral muscarinic effects” value was “small separation”.
